The results in this text go back to PubChem BioAssay (NCI).

Structures are written as SMILES.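 Growth conditions: 96-well plates. Treatment: test compound, 48 hours, 5 concentrations. Analysis: linear interpolation between bracketing concentrations; unreached endpoints set to highest concentration. At the TGI there is no net growth.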

Test systems include KM12 colon; SK-MEL-5 melanoma; OVCAR-5 ovarian; 786-0 renal; SF-539 CNS; U251 CNS; MDA-N; UACC-257 melanoma; MOLT-4 leukemia; SW-620 colon; A498 renal; UACC-62 melanoma; TK-10 renal; COLO 205 colon; SK-MEL-28 melanoma; OVCAR-3 ovarian; HCT-116 colon; CAKI-1 renal; SR leukemia; RXF 393 renal.
Holding throughout (assay): DTP human tumour cell line panel, 48 h

The TGI is the concentration at which net growth stops. Higher therefore signals less potent growth arrest. As to `O=C(/C=C/C=C/c1ccccc1)c1ccc2c(c1)CCCC2`, the TGI with KM12 colon, in the test on SK-MEL-5 melanoma, with OVCAR-5 ovarian, in the test with 786-0 renal, in the test on SF-539 CNS and in the test on U251 CNS was > 100 µM each time. Further, the TGI in the test with MDA-N was 62.8 µM; with UACC-257 melanoma, > 100 µM; in the test on MOLT-4 leukemia, 87.6 µM; with SW-620 colon, > 100 µM; with A498 renal it was > 100 µM; in the test on UACC-62 melanoma, > 100 µM. Moreover, the total growth inhibition concentration (TGI) in the test with TK-10 renal, with COLO 205 colon, in the test with SK-MEL-28 melanoma, in the test on OVCAR-3 ovarian, in the test with HCT-116 colon and with CAKI-1 renal was > 100 µM each time. In addition, in the test on SR leukemia, the concentration for total growth inhibition (TGI) was found to be 87.9 µM.
As to `C[C@@H]1CCC2[C@@H](C)[C@@H](OCCO[C@H]3OC4O[C@@]5(C)CCC6[C@H](C)CCC([C@H]3C)[C@@]46OO5)OC3O[C@@]4(C)CCC1[C@]32OO4` (stereo not given in full), the total growth inhibition concentration (TGI) is > 100 µM in the test on KM12 colon; > 100 µM with RXF 393 renal; > 39.8 µM with SK-MEL-5 melanoma; > 100 µM in the test on OVCAR-5 ovarian; > 100 µM with 786-0 renal; > 100 µM in the test with SF-539 CNS. Also, the TGI was > 100 µM in the test with U251 CNS; > 100 µM in the test on MDA-N; > 100 µM with UACC-257 melanoma; > 100 µM with MOLT-4 leukemia; > 100 µM with SW-620 colon; > 77.1 µM in the test with A498 renal. Besides, the TGI with UACC-62 melanoma was > 100 µM; with TK-10 renal, > 100 µM; in the test with COLO 205 colon it was 0.304 µM; in the test with SK-MEL-28 melanoma, > 100 µM; in the test with HCT-116 colon, > 100 µM; in the test with CAKI-1 renal it was 2.07 µM. For the same compound, the concentration for total growth inhibition (TGI) in the test with SR leukemia is > 100 µM.
With `CCOC(=O)c1cc(C2(O)CCN(CC(C)CC)C2=O)c(-c2cc(C)no2)[nH]1` (stereo not given), the TGI with KM12 colon, in the test on RXF 393 renal, in the test on SK-MEL-5 melanoma, with OVCAR-5 ovarian, in the test on 786-0 renal and in the test with SF-539 CNS was > 100 µM throughout. In addition, the concentration for total growth inhibition (TGI) in the test with U251 CNS, in the test on MDA-N, in the test with UACC-257 melanoma, with MOLT-4 leukemia, in the test with SW-620 colon and in the test on A498 renal was > 100 µM in each case. For the same compound, the TGI in the test with UACC-62 melanoma, with COLO 205 colon, in the test with SK-MEL-28 melanoma, in the test with OVCAR-3 ovarian, with HCT-116 colon and in the test on CAKI-1 renal was > 100 µM in each case. For the same compound, the TGI in the test with SR leukemia was > 100 µM.
With `CN1C(=O)C(CC=O)(C(C)(C)C)c2ccccc21` (stereo not given), the concentration for total growth inhibition (TGI) in the test with KM12 colon, in the test on RXF 393 renal, with SK-MEL-5 melanoma, with OVCAR-5 ovarian, with 786-0 renal and in the test on U251 CNS was > 100 µM throughout. In addition, the TGI in the test with MDA-N, in the test on UACC-257 melanoma, in the test with MOLT-4 leukemia, with SW-620 colon, in the test with A498 renal and with UACC-62 melanoma was > 100 µM in each case. The TGI with COLO 205 colon, with SK-MEL-28 melanoma, in the test on OVCAR-3 ovarian, in the test with HCT-116 colon, in the test on CAKI-1 renal and in the test on SR leukemia was > 100 µM each time.
With `COC(=O)c1c(O)ccc2c1c1c(n2Cc2ccc(Cl)cc2Cl)C(=O)c2ccccc2C1`, the TGI was > 100 µM in the test on KM12 colon; 78.8 µM with RXF 393 renal; > 100 µM in the test with SK-MEL-5 melanoma; > 100 µM in the test with 786-0 renal; > 100 µM with SF-539 CNS; > 100 µM with U251 CNS. Moreover, the TGI with MDA-N, with UACC-257 melanoma, in the test on MOLT-4 leukemia, in the test with SW-620 colon, in the test on A498 renal and in the test with UACC-62 melanoma was > 100 µM throughout. The TGI in the test on TK-10 renal, with COLO 205 colon, with SK-MEL-28 melanoma, in the test with OVCAR-3 ovarian, with HCT-116 colon and in the test on SR leukemia was > 100 µM each time.
In the case of `N#C/C(N)=C(\C#N)NC=NCc1ccccc1`, the TGI in the test on KM12 colon, with SK-MEL-5 melanoma, with OVCAR-5 ovarian, in the test with 786-0 renal, in the test with SF-539 CNS and in the test on U251 CNS was > 100 µM throughout. The total growth inhibition concentration (TGI) in the test on MDA-N, in the test with UACC-257 melanoma, in the test with MOLT-4 leukemia, in the test with SW-620 colon, with A498 renal and with UACC-62 melanoma was > 100 µM each time. Further, the TGI in the test on TK-10 renal, in the test with COLO 205 colon, in the test with SK-MEL-28 melanoma, with OVCAR-3 ovarian, in the test on HCT-116 colon and in the test with CAKI-1 renal was > 100 µM throughout. Also, the total growth inhibition concentration (TGI) in the test on SR leukemia was > 100 µM.
For the compound `CC(C)(C)C(=O)OC(N)/C=C/c1ccccc1` (stereo not given), the TGI with KM12 colon, in the test with RXF 393 renal, in the test with SK-MEL-5 melanoma, in the test with OVCAR-5 ovarian, in the test with 786-0 renal and in the test with SF-539 CNS was > 100 µM in each case. The concentration for total growth inhibition (TGI) with U251 CNS, with MDA-N, with UACC-257 melanoma, in the test on MOLT-4 leukemia, in the test on SW-620 colon and with A498 renal was > 100 µM throughout. The TGI in the test with UACC-62 melanoma, in the test with COLO 205 colon, with SK-MEL-28 melanoma, with OVCAR-3 ovarian, in the test on HCT-116 colon and in the test on CAKI-1 renal was > 100 µM in each case. For the same compound, the TGI in the test with SR leukemia is > 100 µM.
For the compound `CCN1CCN=c2c3cc(OC)ccc3n3cnc4ccc1c2c43`, the TGI was 1.21 µM in the test on KM12 colon; 1.05 µM with RXF 393 renal; 0.784 µM with SK-MEL-5 melanoma; 0.929 µM with OVCAR-5 ovarian; 0.394 µM with 786-0 renal; 0.413 µM in the test on SF-539 CNS. Also, the total growth inhibition concentration (TGI) is 1.05 µM in the test with U251 CNS; 1.11 µM with MDA-N; 2.05 µM with UACC-257 melanoma; 1.57 µM in the test with MOLT-4 leukemia; 2.08 µM in the test with SW-620 colon; 0.735 µM in the test on A498 renal. Also, the TGI was determined as 0.975 µM in the test on UACC-62 melanoma; 6.66 µM in the test with TK-10 renal; 0.606 µM with COLO 205 colon; 1.83 µM in the test with SK-MEL-28 melanoma; 0.525 µM in the test with OVCAR-3 ovarian; 0.194 µM in the test with HCT-116 colon. The compound also yielded a concentration for total growth inhibition (TGI) with SR leukemia of 0.158 µM.
